The values below come from US9879008B2, “2,3,4,6-tetra-substituted benzene-1,5-diamine derivatives, preparation method therefor and medicinal use thereof” (SHANGHAI HAIYAN PHARMACEUTICAL TECHNOLOGY CO., LTD., priority 2014, dated 2018).

In one assay the target is T1, wild-type EGFR kinase (Homo sapiens, UniProt P00533).
T1 construct: purchased Invitrogen PV3872
The experiment in a line: z-lyte inhibition test against wild-type EGFR kinase.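 Also: reaction volume 10 µL holding 0.8 ng/µL enzyme and 2 µM Tyr04 substrate, with DMSO at 2% once compounds are present.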 The format is biochemical. Conditions: 10 μM ATP, read-out: EGFR WT (IC50/nM).

A further assay deals with H1975 cell. The experiment in a line: MTT cytostatic activity, H1975 cell.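 As to all read-outs here: cells in 96-well plates exposed to compound for 72 h, then given MTT for a further 4 h at 37 °C under 5% CO2.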 Conditions: MTT; for IC50: Homo sapiens, NCI-H1975, 72 h, read-out: H1975 cell (IC50/nM); for Selective inhibitory activity against cells [IC50(A431 cell)/IC50(H1975 cell)]: ratio of cell IC50 values. The format is cell-based.
In another assay the test system is NIH3T3 cell. The experiment in a line: MTT cytotoxicity against NIH3T3 cells. The class given is cell-based. Conditions: Mus musculus, NIH3T3; cytotoxicity, MTT, 72 h; read-out: MTT assay against NIH3T3 cell (IC50/nM). On the technique in general: Tetrazolium assays rely on reduction of a dye to a coloured formazan, in cell work by metabolically active cells.
A further assay deals with A431 cell. The experiment in a line: MTT cytostatic activity, A431 cell. The format is cell-based. To be noted: Homo sapiens, A-431; MTT, 72 h; read-out: A431 cell (IC50/nM).
The next assay relates to A431 cells. The experiment in a line: ELISA assay for cell activity, EGF-treated A431 cells.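 Also: Serum-starved A431 cells, ELISA on lysates read as OD450 minus OD570, inhibition scaled between EGF-stimulated wells (0%) and unstimulated cell control (100%), DMSO 0.5% final.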 The format is cell-based. Conditions: Homo sapiens, A-431, compound 1 h, then EGF 45 min.
A further assay concerns H1975 cells. The experiment in a line: ELISA assay for cell activity of EGFR T790M inhibitor, H1975 cells. Conditions: for Selective inhibitory activities against cell [IC50(A431 cell)/IC50(H1975 cell)]: ELISA, ratio of cell IC50 values; for IC50: Homo sapiens, NCI-H1975, 1 h, read-out: H1975 cell (IC50/nM). A general note: ELISA stands for enzyme-linked immunosorbent assay.

T1 sequence (P00533 25-1210): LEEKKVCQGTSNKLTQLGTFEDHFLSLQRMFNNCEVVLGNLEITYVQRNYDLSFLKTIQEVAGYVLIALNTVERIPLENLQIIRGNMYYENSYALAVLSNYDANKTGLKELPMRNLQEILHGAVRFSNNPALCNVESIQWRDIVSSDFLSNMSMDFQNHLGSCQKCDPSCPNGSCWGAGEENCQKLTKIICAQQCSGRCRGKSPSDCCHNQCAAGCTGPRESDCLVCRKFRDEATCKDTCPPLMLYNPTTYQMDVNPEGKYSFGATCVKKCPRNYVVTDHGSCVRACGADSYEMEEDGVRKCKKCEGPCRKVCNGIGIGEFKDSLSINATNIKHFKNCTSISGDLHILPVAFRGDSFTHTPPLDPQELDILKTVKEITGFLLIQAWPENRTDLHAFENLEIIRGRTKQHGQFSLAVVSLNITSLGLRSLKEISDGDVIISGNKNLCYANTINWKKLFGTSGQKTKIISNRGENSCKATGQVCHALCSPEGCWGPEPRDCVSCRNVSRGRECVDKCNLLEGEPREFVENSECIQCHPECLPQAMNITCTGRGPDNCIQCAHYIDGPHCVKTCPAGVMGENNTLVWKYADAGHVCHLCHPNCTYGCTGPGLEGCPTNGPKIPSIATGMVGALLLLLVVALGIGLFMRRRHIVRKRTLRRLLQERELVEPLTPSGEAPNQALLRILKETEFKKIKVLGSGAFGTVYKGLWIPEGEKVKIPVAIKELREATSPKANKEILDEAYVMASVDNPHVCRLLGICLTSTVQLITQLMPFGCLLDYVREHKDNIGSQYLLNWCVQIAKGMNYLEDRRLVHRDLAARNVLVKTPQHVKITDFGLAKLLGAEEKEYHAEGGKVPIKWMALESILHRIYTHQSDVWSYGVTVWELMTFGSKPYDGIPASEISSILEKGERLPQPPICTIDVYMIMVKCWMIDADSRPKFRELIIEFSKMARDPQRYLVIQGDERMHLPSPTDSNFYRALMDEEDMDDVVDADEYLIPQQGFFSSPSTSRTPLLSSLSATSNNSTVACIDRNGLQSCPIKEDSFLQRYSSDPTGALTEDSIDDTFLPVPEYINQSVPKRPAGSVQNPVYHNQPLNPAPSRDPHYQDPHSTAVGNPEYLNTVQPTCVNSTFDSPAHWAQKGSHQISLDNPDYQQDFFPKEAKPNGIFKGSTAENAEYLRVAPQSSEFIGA

As to `C=CC(=O)Nc1cc(Nc2nccc(OC3CN(c4cccnc4)C3)n2)c(OC)cc1N(C)CCN(C)C` [Compound J-17], the IC50 at wild-type EGFR kinase is 8 nM; in the assay with H1975 cell it was 121 nM; in the assay on NIH3T3 cell it was greater than 10000 nM; with A431 cell, 1880 nM; with A431 cells, 155 nM; with H1975 cells, 129 nM. Also, the “Selective inhibitory activity against cells [IC50(A431 cell)/IC50(H1975 cell)]” value (shortened to “Selective inhibitory activity”) with H1975 cell is given as 15.5. In the assay on H1975 cells, the “Selective inhibitory activities against cell [IC50(A431 cell)/IC50(H1975 cell)]” value (shortened to “Selective inhibitory activities”) is given as 1.2.

`C=CC(=O)Nc1cc(Nc2ncc(F)c(SC3CN(C(C)=O)C3)n2)c(OC)cc1N1CCC(N(C)C)CC1` [Compound J-58]: the IC50 is 69 nM on wild-type EGFR kinase; 23 nM in the assay with H1975 cell; greater than 10000 nM in the assay on NIH3T3 cell; 2260 nM with A431 cell; 991 nM with A431 cells; 24 nM in the assay with H1975 cells. For the same compound, in the assay with H1975 cell, the “Selective inhibitory activity” value is given as 98.3. Further, in the assay with H1975 cells, the “Selective inhibitory activities” value amounted to 41.3.

With `C=CC(=O)Nc1cc(Nc2ncc(Cl)c(OC3CCCN(S(C)(=O)=O)CC3)n2)c(OC)cc1N(C)CCN(C)C` (stereo not drawn) [Compound J-1, N-(5-(5-chloro-4-(1-(methylsulfonyl)azacycloheptane-4-oxy)pyrimidine-2-amino)-2-((2-(dimethylamino)ethyl)(methyl)amino)-4-methoxylphenyl)acrylamide], the IC50 was 20 nM on wild-type EGFR kinase; 22 nM in the assay on H1975 cell; greater than 10000 nM in the assay on NIH3T3 cell; 1140 nM with A431 cell; 383 nM in the assay on A431 cells; 13 nM in the assay with H1975 cells. Besides, the “Selective inhibitory activity” value with H1975 cell was 52. Also, the “Selective inhibitory activities” value in the assay with H1975 cells was 29.5.

`C=CC(=O)Nc1cc(Nc2ncc(F)c(SC3CN(S(C)(=O)=O)C3)n2)c(OC)cc1N1CCC(N(C)C)CC1` [Compound J-57]: the IC50 was 4 nM on wild-type EGFR kinase; 7 nM in the assay with H1975 cell; greater than 10000 nM in the assay on NIH3T3 cell; 534 nM in the assay with A431 cell; 49 nM in the assay with A431 cells; 11 nM with H1975 cells. For the same compound, the “Selective inhibitory activity” value in the assay on H1975 cell is given as 76.3. For the same compound, the “Selective inhibitory activities” value in the assay with H1975 cells is 4.5.

Consider `C=CC(=O)Nc1cc(Nc2ncc(Cl)c(OC3CCCN(C(C)=O)CC3)n2)c(OC)cc1N1CCC(N(C)C)CC1` (stereo not drawn) [Compound J-35], for which the IC50 on wild-type EGFR kinase is 80 nM; in the assay with H1975 cell it was 35 nM; with NIH3T3 cell, greater than 10000 nM; in the assay on A431 cell, 2900 nM; with A431 cells it was 2970 nM; with H1975 cells it was 52 nM. Besides, the “Selective inhibitory activity” value with H1975 cell turned out to be 82.8. For the same compound, in the assay on H1975 cells, the “Selective inhibitory activities” value amounted to 57.2.

For the compound `C=CC(=O)Nc1cc(Nc2ncc(F)c(OC3CN(S(C)(=O)=O)C3)n2)c(OC)cc1N1CCC(N(C)C)CC1` [Compound J-29], the IC50 was 6 nM on wild-type EGFR kinase; 17 nM in the assay with H1975 cell; greater than 10000 nM in the assay on NIH3T3 cell; 1100 nM with A431 cell; 156 nM with A431 cells; 23 nM in the assay with H1975 cells. For the same compound, the “Selective inhibitory activity” value in the assay with H1975 cell is reported as 64.5. For the same compound, in the assay with H1975 cells, the “Selective inhibitory activities” value was 7.

With `C=CC(=O)Nc1cc(Nc2ncc(Cl)c(NC3CN(S(C)(=O)=O)C3)n2)c(OC)cc1N1CCC(N(C)C)CC1` [Compound J-60, N-(5-(5-chloro-4-(1-(methylsulfonyl)azetidine-3-amino)pyrimidine-2-amino)-2-(4-(dimethylamino)piperidine-1-yl)-4-methoxyphenyl)acrylamide], the IC50 was 6 nM at wild-type EGFR kinase; 24 nM in the assay with H1975 cell; greater than 10000 nM in the assay with NIH3T3 cell; 1340 nM in the assay with A431 cell; 272 nM in the assay on A431 cells; 30 nM in the assay on H1975 cells. Also, the “Selective inhibitory activity” value in the assay on H1975 cell was determined as 56. In the assay on H1975 cells, the “Selective inhibitory activities” value is 9.1.

In the case of `C=CC(=O)Nc1cc(Nc2ncc(C(F)(F)F)c(SC3CN(S(C)(=O)=O)C3)n2)c(OC)cc1N1CCC(N(C)C)CC1` [Compound J-59], the IC50 on wild-type EGFR kinase is 23 nM; in the assay on H1975 cell, less than 5 nM; in the assay on NIH3T3 cell it was 9630 nM; in the assay with A431 cell, 1950 nM; in the assay with A431 cells it was 757 nM; in the assay on H1975 cells, 6 nM. Also, the “Selective inhibitory activity” value in the assay with H1975 cell is given as greater than 390. Further, in the assay with H1975 cells, the “Selective inhibitory activities” value was 126.

With `C=CC(=O)Nc1cc(Nc2ncc(Cl)c(O[C@@H]3CCCN(S(C)(=O)=O)C3)n2)c(OC)cc1N(C)CCN(C)C` [Compound J-40, (R)—N-(5-(5-chloro-4-(1-(methylsulfonyl)piperidine-3-oxy)pyrimidine-2-amino)-2-((2-(dimethylamino)ethyl)(methyl)amino)-4-methoxyphenyl)acrylamide], the IC50 on wild-type EGFR kinase was 47 nM; in the assay with H1975 cell, 50 nM; in the assay on NIH3T3 cell it was greater than 10000 nM; in the assay with A431 cell it was 2950 nM; in the assay on A431 cells, 670 nM; with H1975 cells, 95 nM. For the same compound, the “Selective inhibitory activity” value in the assay with H1975 cell was 59. In the assay with H1975 cells, the “Selective inhibitory activities” value came to 7.1.

Regarding `C=CC(=O)Nc1cc(Nc2ncc(Cl)c(OC3CN(C(C)=O)C3)n2)c(OC)cc1N(C)CCN(C)C` [Compound J-28], the IC50 at wild-type EGFR kinase was 49 nM; in the assay on H1975 cell, 11 nM; in the assay with NIH3T3 cell, greater than 10000 nM; with A431 cell, 3150 nM; in the assay on A431 cells, 649 nM; with H1975 cells, 20 nM. In the assay with H1975 cell, the “Selective inhibitory activity” value is given as 286.3. Further, the “Selective inhibitory activities” value with H1975 cells stood at 32.5.

Regarding `C=CC(=O)Nc1cc(Nc2ncc(Cl)c(O[C@H]3CCN(S(C)(=O)=O)C3)n2)c(OC)cc1N1CCC(N(C)C)CC1` [Compound J-46], the IC50 on wild-type EGFR kinase was 49 nM; in the assay on H1975 cell it was 17 nM; with NIH3T3 cell it was greater than 10000 nM; in the assay on A431 cell, 2920 nM; in the assay on A431 cells, 832 nM; in the assay with H1975 cells it was 13 nM. Further, the “Selective inhibitory activity” value in the assay on H1975 cell came to 171.8. Further, in the assay on H1975 cells, the “Selective inhibitory activities” value worked out at 64.

With `C=CC(=O)Nc1cc(Nc2ncc(Cl)c(OC3CN(S(C)(=O)=O)C3)n2)c(OC)cc1OCCN(C)C` [Compound J-71], the IC50 was 23 nM on wild-type EGFR kinase; 21 nM with H1975 cell; greater than 10000 nM with NIH3T3 cell; 1800 nM in the assay with A431 cell; 539 nM with A431 cells; 32 nM in the assay on H1975 cells. The “Selective inhibitory activity” value in the assay with H1975 cell stood at 86. Besides, in the assay with H1975 cells, the “Selective inhibitory activities” value is listed as 17.
